In patent US20100029615A1, “BENZIMIDAZOLE DERIVATIVES” (priority 2006, published 2010):
Structures can show the parent of a compound that is named as a salt.

target: T1, SMO (Mus musculus, UniProt P56726); assay: Smoothened (SMO)/Sonic Hedgehog (SHh) Transient Transcriptional Activation Assay (Gli-luciferase reporter in C3H10T1/2 cells); assay type: cell-based, murine; details: 2 uM test compound, SHh 250 ng/ml, 20 hrs
T1 construct: endogenous in cells; host or cells: C3H10T1/2 (ATCC #CCL-226)
Protocol: As noted above, the compounds of the invention are useful as inhibitors of SMO. Methods for determining the in vitro activity of these compounds are described below: Smoothened (SMO)/Sonic Hedgehog (SHh) Transient Transcriptional Activation Assay
On Day 1,2×10^6 C3H10T1/2 cells (ATCC #CCL-226) were split and seeded in 12 mls of growth medium Basal Medium Eagle (BME, Invitrogen #21010-046) supplemented with 2 mM L-glutamine (Invitrogen #25030-081), 0.1 units/ml penicillin and 0.1 ug/ml streptomycin (Invitrogen #15140-122), and 10% Fetal Bovine Serum (FBS, Invitrogen #16140-071) in a T-75 flask (Costar #3376). They were allowed to attach for 4 hours at 37° C., 5% CO2. The cells were then transfected using Fugene 6 (Roch #11 814 443 001) in the following reaction: 48 ul Fugene 6 and 745 ul Opti-MEM (Invitrogen #31985-070) were mixed and allowed to sit at room temperature for 5 minutes. 8 ug of pGL4.14/mGli(CS) DNA (10× murine Gli response elements and minimal CS promoter) and 0.5 ug of pEGFP DNA (Clontech) were added, gently mixed and incubated at room temperature for 20 minutes. This entire transfection mix was then added to the T-75 flask containing the cells. The cells were incubated at 37 °C, 5% C02 for 18-24 hrs.
On Day 2, the transfected cells were trypsinized and seeded into white 96 well plates (Costar #3917) in 100ul/well of growth medium at a concentration of 20,000 cells/well. The cells were allowed to recover for 4 hrs before adding serum starvation medium Dulbecco's Modified Eagle Medium (DMEM, Invitrogen #21063-029) supplemented with 2 mM L-glutamine, 0.1 units/ml penicillin and 0.1 ug/ml streptomycin, and 0.5% Calf Serum (CS, Invitrogen #26170-043). The growth media was aspirated off, and the cells were rinsed with 100 ul of starvation media. 95 ul of starvation media was then added to each well. The cells were incubated for 20 hrs at 37 °C, 5% C02.
On Day 3, cells were dosed with test compounds at a final concentration ranging from 2 uM to 2 nM. Immediately after dosing cells with compounds, recombinant human sonic hedgehog (SHh, R&D Systems #1845-SH) was add to a final concentration of 250 ng/ml. A 25 ug vial of SHh was reconstituted with 250 ul PBS/0.1% BSA to give a 100 ng/ul working stock. This working stock was then diluted 1:20 in starvation media. The transfected cells were incubated with compounds and SHh for 20 hrs at 37 °C, 5% C02.
Luciferase assays were conducted on Day 4 using Dual-Glo Luciferase assay system (Promega #E2940) according to Promega's protocol. Briefly, Dual-Glo luciferase reagent was made up and 100 uls were added to each well of the 96 well plate containing media. Plates were shaken at room temperature for 10 minutes, and then read on TopCount (Perkin-Elmer). The luminescence was recorded.

T1 sequence (P56726 33-793): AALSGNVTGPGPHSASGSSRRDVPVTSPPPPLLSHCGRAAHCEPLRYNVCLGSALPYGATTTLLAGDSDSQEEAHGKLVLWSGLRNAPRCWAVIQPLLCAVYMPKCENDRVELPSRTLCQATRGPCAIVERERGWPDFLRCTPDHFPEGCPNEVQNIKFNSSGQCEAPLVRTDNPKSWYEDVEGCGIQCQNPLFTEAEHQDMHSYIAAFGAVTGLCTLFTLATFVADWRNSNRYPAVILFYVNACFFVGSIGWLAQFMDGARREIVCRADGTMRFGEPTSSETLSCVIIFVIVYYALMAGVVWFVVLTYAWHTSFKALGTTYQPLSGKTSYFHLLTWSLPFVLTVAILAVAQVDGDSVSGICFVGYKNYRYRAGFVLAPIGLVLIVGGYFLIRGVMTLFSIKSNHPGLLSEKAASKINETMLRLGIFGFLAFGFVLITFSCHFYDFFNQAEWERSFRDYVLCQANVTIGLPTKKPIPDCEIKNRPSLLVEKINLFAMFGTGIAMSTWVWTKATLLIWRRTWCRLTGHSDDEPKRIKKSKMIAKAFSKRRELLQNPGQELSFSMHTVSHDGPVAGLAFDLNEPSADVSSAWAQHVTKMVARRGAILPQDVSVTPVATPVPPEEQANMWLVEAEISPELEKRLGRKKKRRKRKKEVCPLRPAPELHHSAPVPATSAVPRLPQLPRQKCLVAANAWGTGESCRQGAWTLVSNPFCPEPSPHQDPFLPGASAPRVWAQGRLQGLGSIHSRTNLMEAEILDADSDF

SMO % inhibition at 2 uM [%]	Molecule
107	N-(3-(5-Bromo-1-methyl-1H-benzo[d]imidazol-2-yl)cyclohexyl)-3,5-dimethoxybenzamide and N-(3-(6-bromo-1-methyl-1H-benzo[d]imidazol-2-yl)cyclohexyl)-3,5-dimethoxybenzamide [Example 18]
102	N-(3-(6-(Methoxymethyl)-1-methyl-1H-benzo[d]imidazol-2-yl]cyclohexyl)-2,3-dihydrobenzo[b][1,4]dioxine-6-carboxamide and N-(3-(6-(Methoxymethyl)-1-methyl-1H-benzo[d]imidazol-2-yl]cyclohexyl)-2,3-dihydrobenzo[b][1,4]dioxine-6-carboxamide [Example 33]

Molecule	SMO % inhibition at 2 uM [%]
N-(3-(1-Methyl-6-(morpholinomethyl)-1H-benzo[d]imidazol-2-yl]cyclohexyl)-2,3-dihydrobenzo[b][1,4]dioxine-6-carboxamide and N-(3-(1-Methyl-5-(morpholinomethyl)-1H-benzo[d]imidazol-2-yl]cyclohexyl)-2,3-dihydrobenzo[b][1,4]dioxine-6-carboxamide [Example 37]	88

same assay, conditions: 2 μM test compound, SHh 250 ng/ml, 20 hrs

SMO CELL % INHIBITION @ 2 μM [%]	Molecule
85.2	Cl.O=C(N[C@H]1CCC[C@H](c2nc3ccccc3[nH]2)C1)c1ccc2c(c1)CN(CC1CC1)CC2 [Example 291, N-[(1S,3S)-3-(1H-benzimidazol-2-yl)cyclohexyl]-2-(cyclopropyl-methyl)-1,2,3,4-tetrahydroisoquino-line-7-carboxamide HCl]

same assay, conditions: C3H 10T1/2, 2 uM test compound, SHh 250 ng/ml, 20 hrs, read-out: SMO % inhibition at 2 uM

inhibition at 2 µM [%]	Molecule
102	COc1ccc2[nH]c(C3CCCC(NC(=O)c4ccc5c(c4)OCCO5)C3)nc2c1 (stereo not drawn) [Example 29, N-(3-(5-Methoxy-1H-benzo[d]imidazol-2-yl)cyclohexyl]-2,3-dihydrobenzo[b][1,4]dioxine-6-carboxamide]
105	COc1cc(OC)cc(C(=O)NC2CCCC(c3nc4ccc(C(F)(F)F)cc4[nH]3)C2)c1 (stereo not drawn) [Example 24, 3,5-Dimethoxy-N-(3-(6-(trifluoromethyl)-1H-benzo[d]imidazol-2-yl]cyclohexyl)benzamide]
108	O=C(Nc1ccc(C(F)(F)F)cc1)N[C@@H]1CCC[C@H](c2nc3ccccc3[nH]2)C1 [Example 47, 1-((1R,3S)-3-(1H-Benzo[d]imidazol-2-yl)cyclohexyl]-3-(4-(trifluoromethyl)phenyl)urea]

same assay, conditions: C3H 10T1/2, 2 μM test compound, SHh 250 ng/ml, 20 hrs, read-out: SMO CELL % INHIBITION @ 2 μM

Molecule	inhibition at 2 µM [%]
O=C(N[C@H]1CCC[C@@H](c2nc3cc(C(F)(F)F)ccc3[nH]2)C1)c1ccc2c(c1)OCCO2 [Example 152, N-{(1S,3R)-3-[5-(trifluoromethyl)-1H-benzimidazol-2-yl]cyclohexyl}-2,3-dihydro-1,4-benzodioxine-6-carboxamide HCl]	80
CCOC(=O)CCCCC(=O)NC1CCCC(c2nc3ccccc3[nH]2)C1 (stereo not drawn) [Example 98, ethyl 6-{[3-(1H-benzimidazol-2-yl)cyclohexyl]amino}-6-oxohexanoate trifl;uoroacetate]	55
COc1cccc2c1OCC(C(=O)NC1CCCC(c3nc4ccccc4[nH]3)C1)C2 (stereo not drawn) [Example 133, N-[3-(1H-benzimidazol-2-yl)cyclohexyl]-8-methoxychrom-ane-3-carboxamide triflouroacetate]	85
O=C(N[C@@H]1CCC[C@H](c2nc3ccccc3[nH]2)C1)c1ccc2c(c1)OCCO2 [Example 64, N-[(1R,3S)-3-(1H-benzimidazol-2-yl)cyclohexyl]-2,3-dihydro-1,4-benzodioxine-6-carboxamide triflouroacetate]	108
O=C1COc2ccc(C(=O)N[C@@H]3CCC[C@H](c4nc5ccccc5[nH]4)C3)cc2N1 [Example 173, N-[(1R,3S)-3-(1H-benzimidazol-2-yl)cyclohexyl]-3-oxo-3,4-dihydro-2H-1,4-benzoxazine-6-carboxamide HCl]	97
CN1CCCc2cc(C(=O)N[C@@H]3CCC[C@H](c4nc5ccccc5[nH]4)C3)ccc21 [Example 200, N-[(1R,3S)-3-(1H-benzimidazol-2-yl)cyclohexyl]-1-methyl-1,2,3,4-tetrahydroquino-line-6-carboxamide HCl]	110
O=C(NC1CCCC(c2nc3ccccc3[nH]2)C1)c1ncc[nH]1 (stereo not drawn) [Example 61, N-[3-(1H-benzimidazol-2-yl)cyclohexyl]-1H-imidazole-2-carboxamide HCl]	52
Cc1c(C(=O)N[C@@H]2CCC[C@H](c3nc4ccccc4[nH]3)C2)oc2ccccc12 [Example 189, N-[(1R,3S)-3-(1H-benzimidazol-2-yl)cyclohexyl]-3-methyl-1-benzofuran-2-carboxamide triflouroacetate]	65
O=C(N[C@@H]1CCC[C@H](c2nc3ccccc3[nH]2)C1)c1ccc2ccccc2c1 [Example 187, N-[(1R,3S)-3-(1H-benzimidazol-2-yl)cyclohexyl]-2-naphthamide triflouroacetate]	94
Cc1cc(C(=O)N[C@@H]2CCC[C@H](c3nc4ccccc4[nH]3)C2)n(C)n1 [Example 177, N-[(1R,3S)-3-(1H-benzimidazol-2-yl)cyclohexyl]-1,3-dimethyl-1H-pyrazole-5-carboxamide HCl]	73
Cc1cccc2nc(C3CCCC(NC(=O)c4ccc5c(c4)OCCO5)C3)[nH]c12 (stereo not drawn) [Example 79, N-[3-(7-methyl-1H-benzimidazol-2-yl)cyclohexyl]-2,3-dihydro-1,4-benzodioxine-6-carboxamide HCl]	102
O=C(NC1CCCC(c2nc3ccc(Br)cc3[nH]2)C1)c1ccc2c(c1)OCCO2 (stereo not drawn) [Example 86, N-[3-(6-bromo-1H-benzimidazol-2-yl)cyclohexyl]-2,3-dihydro-1,4-benzodioxine-6-carboxamide HCl]	102
O=C(NC1CCCC(c2nc3ccccc3[nH]2)C1)c1ccc(O)c(Cl)c1 (stereo not drawn) [Example 147, N-[3-(1H-benzimidazol-2-yl)cyclohexyl]-3-chloro-4-hydroxybenz-amide triflouroacetate]	68
O=C(NC1CCCC(c2nc3ccccc3[nH]2)C1)c1ccc(-n2ccnc2)cc1 (stereo not drawn) [Example 90, N-[3-(1H-benzimidazol-2-yl)cyclohexyl]-4-(1H-imidazol-1-yl)benzamide triflouroacetate]	100

Further lines, results first:

inhibition at 2 µM [%]	Molecule
104	COc1cc(OC)cc(C(=O)N[C@@H]2CCC[C@H](c3nc4cc(Cl)ccc4[nH]3)C2)c1 [Example 298, N-[(1R,3S)-3-(5-chloro-1H-benzimidazol-2-yl)cyclohexyl]-3,5-dimethoxybenz-amide (+)-tartrate]
82.3	[N-]=[N+]=Nc1ccc(C(=O)NC23CCCC(c4nc5ccccc5[nH]4)(C2)C3)cc1 [Example 277, 4-azido-N-[5-(1H-benzimidazol-2-yl)bicyclo[3.1.1]hept-1-yl]benzamide]
107	O=C(NC12CCCC(c3nc4cc(C(F)(F)F)ccc4[nH]3)(C1)C2)c1ccc2c(c1)OCCO2 [Example 257, N-{5-[5-(trifluoromethyl)-1H-benzimidazol-2-yl]bicyclo[3.1.1]hept-1-yl}-2,3-dihydro-1,4-benzodioxine-6-carboxamide]
100	O=C(N[C@@H]1CCC[C@H](c2nc3ccccc3[nH]2)C1)c1cc2c(cn1)OCCO2 [Example 253, N-((1R,3S)-3-(1H-benzo[d]imidaz-ol-2-yl)cyclohexyl)-2,3-dihydro-[1,4]dioxino[2,3-c]pyridine-7-carboxamide]
23	COc1ccc2[nH]c([C@@H]3CCC[C@H](NC(=O)c4ccc5c(c4)OCCO5)C3)nc2c1 [Example 239, N-((1S,3R)-3-(5-methoxy-1H-benzo[d]imidaz-ol-2-yl)cyclohexyl)-2,3-dihydrobenzo[b] [1,4]dioxine-6-carboxamide HCl]
109	O=C(N[C@@H]1CCC[C@H](c2nc3ccccc3[nH]2)C1)c1ccc2cc[nH]c2c1 [Example 203, N-[(1R,3S)-3-(1H-benzimidazol-2-yl)cyclohexyl]-1H-indole-6-carboxamide triflouroacetate]
